What was measured:
Format in all cases: in vivo, human
[1] = tested on: Cushing's syndrome patients; experiment: Phase 2 CORT125134-451 study in Cushing syndrome: overall clinical efficacy
Protocol: All patients gave informed consent before participating in any study-related procedures. […] Response criteria for hyperglycemia were changes from baseline in glucose tolerance as measured by: ≥0.5% decrease in HbA1c, normalization or ≥50 mg/dL decrease in 2-hr OGTT glucose, or decrease in total daily insulin (≥25%) or sulfonylurea dose (≥50%). Response criteria for hypertension (HTN) was a ≥5 mm Hg decrease in mean systolic and/or diastolic blood pressure (SBP/DBP). […] The efficacy of the drug in Cushing syndrome was assessed based on the improvement of morbidities associated with excess cortisol activity, e.g. hyperglycaemia, hypertension, cognitive dysfunction, depression, poor quality of life, hypercoagulopathy and obesity. (A morbidity associated with excess cortisol, e.g., associated with hypercortisolemia, Cushing's syndrome, Cushing's disease, etc., is also termed a “comorbidity”.)

[2] = tested on: Cushing's syndrome patients; experiment: Cushing's syndrome patient study: weight loss
Description: All patients gave informed consent before participating in any study-related procedures.

[3] = tested on: Cushing's syndrome patients; experiment: Cushing's syndrome patient study: ECG; details: All Subjects
Description: (§1) All patients gave informed consent before participating in any study-related procedures. […] The study protocol called for patient visits to the study site at screening, on Day 1 (baseline), Weeks 2, 4, 6, 8, 10, and 12, and after a 4-week follow-up period for Group 1. For Group 2, the protocol called for patient visits to the study site at screening, on Day 1 (baseline), Weeks 2, 4, 6, 8, 10, 12, 14, and 16, and after a 4-week follow-up period. Patient dosing will be done at home, except on days of study visits. […] The safety protocol also included assessments by physical examination findings, vital signs, ECG results, pregnancy tests, clinical laboratory test results (hematology and chemistry panels), adverse events (AEs), and concomitant medications. […] It ignores noncompliance, protocol deviations, withdrawal, and anything that happens after randomization. In contrast, per-protocol (PP) analysis refers to inclusion in the analysis of only those patients who strictly adhered to the protocol. The PP analysis provides an estimate of the true efficacy of an intervention, i.e., among those who completed the treatment as planned.

[4] = tested on: Cushing's syndrome patients; experiment: Cushing's syndrome patient study: coagulation factors, platelets, aPTT; details: Abnormal at Baseline, mITT
Description: as §1

[5] = Safety population, Group 1 (100-200 mg/day, 12 weeks)
[6] = Safety population, Group 2 (250-400 mg/day, 16 weeks)
[7] = mITT, Group 1 (100-200 mg/day, 12 weeks)
[8] = mITT, Group 2 (250-400 mg/day, 16 weeks)
[9] = Group 1 (100-200 mg/day, 12 weeks)
[10] = Group 2 (250-400 mg/day, 16 weeks)

For Cn1cc(S(=O)(=O)N2CCC3=Cc4c(cnn4-c4ccc(F)cc4)C[C@]3(C(=O)c3cc(C(F)(F)F)ccn3)C2)cn1 [relacorilant, (R)-(1-(4-fluorophenyl)-6-((1-methyl-1H-pyrazol-4-yl)sulfonyl)-4,4a,5,6,7,8-hexahydro-1H-pyrazolo[3,4-g]isoquinolin-4a-yl) (4-(trifluoromethyl)pyridin-2-yl)methanone], the “reduction of the effects of excess cortisol” value ([1]; Cushing's syndrome patients) was “effective in reducing many of the effects of excess cortisol”, the “time to improvement in hyperglycaemia and hypertension” value ([1]; after achieving a therapeutic dose) was “within two weeks” and the “clinical effect on hyperglycemia and hypertension” value ([1]; dosages up to 400 mg/day) was “clinical improvement in hyperglycemia and hypertension”. The “secondary endpoints: hypercoagulopathy, liver function, serum osteocalcin, cognitive function, depression, quality of life” value ([1]; high-dose group) was “statistically significant improvements”, the “efficacy relative to previous metyrapone therapy (primary and secondary endpoints)” value ([1]; two patients treated previously with metyrapone) was “higher efficacy” and the average weight loss ([2]; doses up to 200 mg daily, within 3 months) was 2.2 kg. For the same molecule, the average weight loss ([2]; doses up to 400 mg daily, within 3 months) was 5.1 kg, the weight loss ([2]; many of the patients) was “Some weight loss” and the weight changes ([2]; within 3 months, in half of the patients) was “significant weight changes”. For the same molecule, the “ECG Median Heart Rate mean change from Baseline to Last Observed” value (shortened to “ECG Median Heart Rate mean change”) [3, 5] was 8 beats/min, the “PR Interval, Aggregate mean change from Baseline to Last Observed” value (“PR Interval, Aggregate mean change” for short) [3, 5] was 2.72 ms and the “QRS Duration, Aggregate mean change from Baseline to Last Observed” value (“QRS Duration, Aggregate mean change” for short) [3, 5] was -0.79 ms. For the same molecule, the “QT Interval, Aggregate mean change from Baseline to Last Observed” value (from here on “QT Interval, Aggregate mean change”) [3, 5] was -15.85 ms, the “QTcB Interval, Aggregate mean change from Baseline to Last Observed” value (“QTcB Interval, Aggregate mean change” for short) [3, 5] was 5.58 ms and the “QTcF Interval, Aggregate mean change from Baseline to Last Observed” value (shortened to “QTcF Interval, Aggregate mean change”) [3, 5] was -1.98 ms. For the same molecule, the “RR Interval, Aggregate mean change from Baseline to Last Observed” value (“RR Interval, Aggregate mean change” below) [3, 5] was -93.14 ms, the “ECG Median Heart Rate mean change” value [3, 6] was 5.23 beats/min and the “PR Interval, Aggregate mean change” value [3, 6] was -4.2 ms. The “QRS Duration, Aggregate mean change” value [3, 6] was -0.77 ms, the “QT Interval, Aggregate mean change” value [3, 6] was -11.04 ms and the “QTcB Interval, Aggregate mean change” value [3, 6] was 2.28 ms. The “QTcF Interval, Aggregate mean change” value [3, 6] was -2.54 ms, the “RR Interval, Aggregate mean change” value [3, 6] was -56.67 ms and the “ECG Median Heart Rate mean change” value ([3]; Safety population, Overall) was 6.7 beats/min. For the same molecule, the “PR Interval, Aggregate mean change” value ([3]; Safety population, Overall) was -0.4 ms, the “QRS Duration, Aggregate mean change” value ([3]; Safety population, Overall) was -0.78 ms and the “QT Interval, Aggregate mean change” value ([3]; Safety population, Overall) was -13.6 ms. For the same molecule, the “QTcB Interval, Aggregate mean change” value ([3]; Safety population, Overall) was 4.03 ms, the “QTcF Interval, Aggregate mean change” value ([3]; Safety population, Overall) was -2.24 ms and the “RR Interval, Aggregate mean change” value ([3]; Safety population, Overall) was -76.04 ms. For the same molecule, the “ECG Median Heart Rate mean change” value [3, 7] was 8 beats/min, the “PR Interval, Aggregate mean change” value [3, 7] was 2.72 ms and the “QRS Duration, Aggregate mean change” value [3, 7] was -0.79 ms. For the same molecule, the “QT Interval, Aggregate mean change” value [3, 7] was -15.85 ms, the “QTcB Interval, Aggregate mean change” value [3, 7] was 5.58 ms and the “QTcF Interval, Aggregate mean change” value [3, 7] was -1.98 ms. The “RR Interval, Aggregate mean change” value [3, 7] was -93.14 ms, the “ECG Median Heart Rate mean change” value [3, 8] was 5.23 beats/min and the “PR Interval, Aggregate mean change” value [3, 8] was -4.2 ms. For the same molecule, the “QRS Duration, Aggregate mean change” value [3, 8] was -0.77 ms, the “QT Interval, Aggregate mean change” value [3, 8] was -11.04 ms and the “QTcB Interval, Aggregate mean change” value [3, 8] was 2.28 ms. For the same molecule, the “QTcF Interval, Aggregate mean change” value [3, 8] was -2.54 ms, the “RR Interval, Aggregate mean change” value [3, 8] was -56.67 ms and the “ECG Median Heart Rate mean change” value ([3]; mITT, Overall) was 6.7 beats/min. The “PR Interval, Aggregate mean change” value ([3]; mITT, Overall) was -0.4 ms, the “QRS Duration, Aggregate mean change” value ([3]; mITT, Overall) was -0.78 ms and the “QT Interval, Aggregate mean change” value ([3]; mITT, Overall) was -13.6 ms. For the same molecule, the “QTcB Interval, Aggregate mean change” value ([3]; mITT, Overall) was 4.03 ms, the “QTcF Interval, Aggregate mean change” value ([3]; mITT, Overall) was -2.24 ms and the “RR Interval, Aggregate mean change” value ([3]; mITT, Overall) was -76.04 ms. The “Factor IX mean change from Baseline to Last Observed” value (“Factor IX mean change from Baseline” below) [4, 9] was −40.8%, the “Factor X mean change from Baseline to Last Observed” value (“Factor X mean change from Baseline” for short) [4, 9] was −15.8% and the “Thrombin-Antithrombin mean change from Baseline to Last Observed” value [4, 9] was 1.61 µg/L. The “Factor IX mean change from Baseline” value [4, 10] was −4.2%, the “Factor X mean change from Baseline” value [4, 10] was −22% and the “Thrombin-Antithrombin mean change from Baseline to Last Observed” value [4, 10] was -9.83 µg/L. For the same molecule, the “von Willebrand Factor mean change from Baseline to Last Observed” value [4, 10] was −18.5%, the “Factor IX mean change from Baseline” value ([4]; Overall) was −22.5% and the “Factor X mean change from Baseline” value ([4]; Overall) was −18.13%.

From patent US12097192B2 (Corcept Therapeutics Incorporated, priority 2019, dated 2024)
